Measured values reported in ChEMBL document CHEMBL1201862, “PubChem BioAssay data set” (2004).
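Results reflect a 48-hour exposure of cells in 96-well plates to compound at five concentrations. The concentration for 50% growth inhibition is given as GI50.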 Active and inactive are the calls of the source. No stated cut-off is given here; in the data, active = GI50 up to about 1.1 µM and inactive = higher.

Experiments:
Test in all cases: DTP human tumour cell line panel, 48 h
[1] = tested on: A549
[2] = tested on: ACHN
[3] = tested on: BT-549
[4] = tested on: HOP-92
[5] = tested on: Hs-578T
[6] = tested on: LOX IMVI
[7] = tested on: M14
[8] = tested on: MCF7
[9] = tested on: NCI-H226
[10] = tested on: NCI/ADR-RES
[11] = tested on: OVCAR-4
[12] = tested on: OVCAR-8
[13] = tested on: RXF 393
[14] = tested on: SF-295
[15] = tested on: SF-539
[16] = tested on: SK-MEL-28
[17] = tested on: SNB-19
[18] = tested on: T47D
[19] = tested on: UACC-257
[20] = tested on: UO-31

Structure (SMILES) | GI50 [1] | GI50 [2] | GI50 [3] | GI50 [4] | GI50 [5] | GI50 [6] | GI50 [7] | GI50 [8] | GI50 [9] | GI50 [10] | GI50 [11] | GI50 [12] | GI50 [13] | GI50 [14] | GI50 [15] | GI50 [16] | GI50 [17] | GI50 [18] | GI50 [19] | GI50 [20]
CCCCn1cc(C(=O)O)c(=O)c2c3sccc3ccc21 | > 100 µM (inactive) | > 100 µM (inactive) | > 100 µM (inactive) | > 100 µM (inactive) | > 100 µM (inactive) | > 100 µM (inactive) | > 100 µM (inactive) | > 100 µM (inactive) | > 100 µM (inactive) | 19.9 µM (inactive) | > 100 µM (inactive) | > 100 µM (inactive) | > 100 µM (inactive) | 74.8 µM (inactive) | > 100 µM (inactive) | > 100 µM (inactive) | > 100 µM (inactive) | > 100 µM (inactive) | > 100 µM (inactive) | 20 µM (inactive)
NC(=S)SC1=NC(=O)C2(NN1)c1ccccc1-c1ccccc12 | > 10 µM (inactive) | 5.36 µM (inactive) | > 10 µM (inactive) | > 10 µM (inactive) | > 10 µM (inactive) | > 10 µM (inactive) | > 10 µM (inactive) | > 10 µM (inactive) | > 10 µM (inactive) | 6.84 µM (inactive) | > 10 µM (inactive) | > 10 µM (inactive) | > 10 µM (inactive) | > 10 µM (inactive) | > 10 µM (inactive) | > 10 µM (inactive) | > 10 µM (inactive) | 1.67 µM (inactive) | > 10 µM (inactive) | 9.1 µM (inactive)
Cc1ccc(S(=O)(=O)N2CCNCCN(S(=O)(=O)c3ccc(C)cc3)CCN(S(=O)(=O)c3ccc(C)cc3)CC2)cc1 | > 100 µM (inactive) | > 100 µM (inactive) | > 100 µM (inactive) | 70.8 µM (inactive) | > 100 µM (inactive) | > 100 µM (inactive) | > 100 µM (inactive) | > 100 µM (inactive) | > 100 µM (inactive) | > 100 µM (inactive) | > 100 µM (inactive) | > 100 µM (inactive) | > 100 µM (inactive) | > 100 µM (inactive) | > 100 µM (inactive) | > 100 µM (inactive) | > 100 µM (inactive) | > 100 µM (inactive) | > 100 µM (inactive) | > 100 µM (inactive)
COC(=O)C1=C(OC(=O)/C(=C/c2ccccc2)c2ccc([N+](=O)[O-])cc2)C(C(=O)OC)[C@@]2(O)[C@@H](C(=O)OC)[C@H](C)C[C@@H]1[C@@H]2C(=O)OC (stereo not given in full) | 76.2 µM (inactive) | > 100 µM (inactive) | 31.1 µM (inactive) | > 100 µM (inactive) | > 100 µM (inactive) | > 100 µM (inactive) | > 100 µM (inactive) | > 100 µM (inactive) | > 100 µM (inactive) | > 100 µM (inactive) | > 100 µM (inactive) | > 100 µM (inactive) | 53 µM (inactive) | > 100 µM (inactive) | 51.5 µM (inactive) | > 100 µM (inactive) | > 100 µM (inactive) | > 100 µM (inactive) | > 100 µM (inactive) | > 100 µM (inactive)
Fc1cccc(C2SCc3nc4cc5ccccc5cc4n32)c1 (stereo not given) | > 100 µM (inactive) | > 100 µM (inactive) | > 100 µM (inactive) | 21 µM (inactive) | > 100 µM (inactive) | > 100 µM (inactive) | > 100 µM (inactive) | > 100 µM (inactive) | > 100 µM (inactive) | > 100 µM (inactive) | 90.8 µM (inactive) | > 100 µM (inactive) | > 100 µM (inactive) | > 100 µM (inactive) | > 100 µM (inactive) | > 100 µM (inactive) | > 100 µM (inactive) | > 100 µM (inactive) | > 100 µM (inactive) | > 100 µM (inactive)
COc1cc(N(CCC#N)CCC#N)ccc1C(=N/NC(=O)c1cc(Br)ccc1O)/N=N/c1ccccc1 | 25.4 µM (inactive) | 28.2 µM (inactive) | 20.8 µM (inactive) | 24.3 µM (inactive) | 61.2 µM (inactive) | 25.8 µM (inactive) | 29 µM (inactive) | 18.9 µM (inactive) | 33.2 µM (inactive) | 32.5 µM (inactive) | 19.6 µM (inactive) | 28.4 µM (inactive) | 26.4 µM (inactive) | 31.6 µM (inactive) | 34.2 µM (inactive) | 27.9 µM (inactive) | 32.1 µM (inactive) | 24 µM (inactive) | 24.7 µM (inactive) | 21.6 µM (inactive)
O=C(O)CCC(N/N=N/c1ccc(-c2nc3ccccc3[nH]2)cc1)C(=O)O (stereo not given) | 78.7 µM (inactive) | 28.2 µM (inactive) | 23.9 µM (inactive) | 36.1 µM (inactive) | 44.4 µM (inactive) | 43.1 µM (inactive) | 54.1 µM (inactive) | 23.1 µM (inactive) | > 100 µM (inactive) | 27.8 µM (inactive) | 66.5 µM (inactive) | 34.8 µM (inactive) | 40.9 µM (inactive) | 21.6 µM (inactive) | > 100 µM (inactive) | > 100 µM (inactive) | > 100 µM (inactive) | 30.7 µM (inactive) | > 100 µM (inactive) | 13.6 µM (inactive)
CCCCCCCCOP(=O)(O)OP(=O)(O)OCC1OC(n2ccc(N)nc2=O)C(O)C1O (stereo not given) | > 100 µM (inactive) | > 100 µM (inactive) | > 100 µM (inactive) | > 100 µM (inactive) | > 100 µM (inactive) | > 100 µM (inactive) | > 100 µM (inactive) | > 100 µM (inactive) | > 100 µM (inactive) | > 100 µM (inactive) | > 100 µM (inactive) | > 100 µM (inactive) | > 100 µM (inactive) | > 100 µM (inactive) | > 100 µM (inactive) | > 100 µM (inactive) | > 100 µM (inactive) | > 100 µM (inactive) | > 100 µM (inactive) | > 100 µM (inactive)
CCSc1nc(COC(=O)NC)c(COC(=O)NC)n1C | > 97.5 µM (inactive) | 16.6 µM (inactive) | > 100 µM (inactive) | > 80.5 µM (inactive) | > 100 µM (inactive) | > 97.1 µM (inactive) | > 64.1 µM (inactive) | > 70.5 µM (inactive) | > 100 µM (inactive) | > 100 µM (inactive) | > 75.7 µM (inactive) | > 100 µM (inactive) | 42.8 µM (inactive) | > 100 µM (inactive) | 98.9 µM (inactive) | > 100 µM (inactive) | > 100 µM (inactive) | > 100 µM (inactive) | > 100 µM (inactive) | > 95.9 µM (inactive)
O=C(O)C(Cc1c[nH]c2ccccc12)N1C(=O)c2ccccc2C1=O (stereo not given) | > 100 µM (inactive) | > 100 µM (inactive) | > 100 µM (inactive) | 0.785 µM (active) | > 100 µM (inactive) | > 100 µM (inactive) | > 100 µM (inactive) | > 100 µM (inactive) | > 100 µM (inactive) | > 100 µM (inactive) | > 100 µM (inactive) | 7.21 µM (inactive) | > 100 µM (inactive) | > 100 µM (inactive) | > 100 µM (inactive) | > 100 µM (inactive) | > 100 µM (inactive) | > 100 µM (inactive) | > 100 µM (inactive) | > 100 µM (inactive)
